These are literature values, as cited in patent US7303775B1, “Carbohydrate ruminant feed energy supplement and method” (Penn State Research Foundation, priority 2003, dated 2007).

In one data set the test system is glucagon. The conditions noted are these: oral, same dose, humans.
For a further data set, the system named is insulin. The conditions noted are these: compared with sucrose or glucose.
Another data set has as its system rat liver. The following applies: compared with glucose.

`OC[C@H]1O[C@@](CO)(O[C@H]2O[C@H](CO)[C@@H](O)[C@H](O)[C@H]2O)[C@@H](O)[C@@H]1O` [sucrose, reference compound]: the effect on glucagon result with glucagon is reported as “decline”.
On to `O=C(CO)[C@@H](O)[C@H](O)[C@H](O)CO` [fructose], for which, in the data set with insulin, the “potency as insulin secretagogue” value was “less potent”. For the same compound, the “rate of conversion to fat by rat liver” value in the data set with rat liver is “much higher rate”. The effect on glucagon result with glucagon is on record as “did not”.
